# Experiments:
# [1] = Solubility determinations in SIF buffers FaSSIF, FeSSIF, FaSSGF (Example 8, Experiment 5); conditions: tabernanthalog sorbate salt, t = 3 h in FaSSGF, 37° C.
# Experimental: The temperature was maintained at 37° C. for 24 h. […] The suspensions were sampled at the relevant time points and centrifuged. The centrifuged pellets, obtained at the time points were analysed by XRPD as a wet pellet and dried, for evidence of form change.
# The temperature was maintained at 37° C. for 24 h.
# The suspension was sampled at the relevant time points and centrifuged. […] The centrifuged pellets, obtained at the time points were analyzed by XRPD as a wet pellet and dried, for evidence of form change.
# [2] = Suspension equilibration of the monofumarate salt at 20° C. and 40° C. (Experiment References 6, 7, 8); type: physicochemical; conditions: for Observations (t = 0 @ 40° C.) / Observations (t = 1 d @ 40° C.) / Observations t = 7 d @ 40° C.: suspension equilibration at 40° C.; for Observations (t = 0 @ 20° C.) / Observations (t = 1 d @ 20° C.) / Observations t = 7 d @ 20° C.: suspension equilibration at 20° C.
# Experimental: Separate portions of the tabernanthalog monofumarate salt (Sample Reference 1, Pattern #1, ca 50 mg, 1.0 wt.) were charged to separate vessels. The appropriate solvents (e.g. 250 μl, 5.0 vol), were charged to the vessels and the mixtures were stirred for several days at their relevant temperatures e.g. 20 and 40° C. After this time the products were cooled, isolated by centrifugation, analyzed as wet pellet (suffix-1) by XRPD and dried under reduced pressure at 40° C. (suffix-2) and re-analyzed by XRPD and companion analyses for evidence of alternative crystalline forms.
# The tabernanthalog monofumarate salt (Sample Reference 1, Pattern #1) was subjected to this technique at ambient temperature (20° C., Table 35) and at elevated temperature (40° C., Table 36), in a diverse range of solvents. The primary aim is to identify a stable, anhydrous monotropic form that is suitable for future development.
# The tabernanthalog monofumarate salt (Sample Reference 1, Pattern #1, 1.0 g, 1 wt) was suspended in water (5 ml, 5 vol) at 20° C. for 10 days (the suspension was sub-sampled to monitor the conversion to Pattern #6a by XRPD). The suspension was filtered through a sintered funnel and the filter cake was dried under nitrogen flow for ca. 24 h. Sample 8-A4 (Experiment Reference 8-Sample Reference A4) was collected as a brown solid (560.6 mg, 56% yield uncorr.). Yield was not corrected for impurities, solvents, etc.
compound,measurement,setting,value
C/C=C/C=C/C(=O)O.COc1ccc2c3c([nH]c2c1)CCN(C)CC3 [Sample 5-L4],"Tabernanthalog RRT = 1.00 (trended HPLC data, chemical purity)",[1],99.36
COc1ccc2c3c([nH]c2c1)CCN(C)CC3.O=C(O)/C=C/C(=O)O [Tabernanthalog•fumarate (CAT8931)],Observations (t = 0 @ 40° C.),"[2]; 7-A, Acetone",Suspension
same,Observations (t = 1 d @ 40° C.),"[2]; 7-A, Acetone",Suspension
same,Observations t = 7 d @ 40° C.,"[2]; 7-A, Acetone",Suspension
same,Observations (t = 0 @ 40° C.),"[2]; 7-B, Acetonitrile",Suspension
same,Observations (t = 1 d @ 40° C.),"[2]; 7-B, Acetonitrile",Suspension
same,Observations t = 7 d @ 40° C.,"[2]; 7-B, Acetonitrile",Suspension
same,Observations (t = 0 @ 40° C.),"[2]; 7-C, tert-Butylmethyl ether",Suspension
same,Observations t = 7 d @ 40° C.,"[2]; 7-C, tert-Butylmethyl ether",Suspension
same,Observations (t = 0 @ 40° C.),"[2]; 7-D, Chlorobenzene",Suspension
same,Observations (t = 1 d @ 40° C.),"[2]; 7-D, Chlorobenzene",Suspension
same,Observations t = 7 d @ 40° C.,"[2]; 7-D, Chlorobenzene",Suspension
same,Observations (t = 0 @ 40° C.),"[2]; 7-E, Dichloromethane",Suspension
same,Observations (t = 1 d @ 40° C.),"[2]; 7-E, Dichloromethane",Suspension
same,Observations t = 7 d @ 40° C.,"[2]; 7-E, Dichloromethane",Suspension
same,Observations (t = 0 @ 40° C.),"[2]; 7-F, Ethanol",Suspension
same,Observations (t = 1 d @ 40° C.),"[2]; 7-F, Ethanol",Suspension
same,Observations t = 7 d @ 40° C.,"[2]; 7-F, Ethanol",Suspension
same,Observations (t = 0 @ 40° C.),"[2]; 7-G, Ethyl acetate",Suspension
same,Observations (t = 1 d @ 40° C.),"[2]; 7-G, Ethyl acetate",Suspension
same,Observations t = 7 d @ 40° C.,"[2]; 7-G, Ethyl acetate",Suspension
same,Observations (t = 0 @ 40° C.),"[2]; 7-H, Ethyl formate",Suspension
same,Observations (t = 1 d @ 40° C.),"[2]; 7-H, Ethyl formate",Suspension
same,Observations t = 7 d @ 40° C.,"[2]; 7-H, Ethyl formate",Suspension
same,Observations (t = 0 @ 40° C.),"[2]; 7-I, Heptane",Suspension
same,Observations (t = 1 d @ 40° C.),"[2]; 7-I, Heptane",Suspension
same,Observations t = 7 d @ 40° C.,"[2]; 7-I, Heptane",Suspension
same,Observations (t = 0 @ 40° C.),"[2]; 7-J, Isopropyl acetate",Suspension
same,Observations (t = 1 d @ 40° C.),"[2]; 7-J, Isopropyl acetate",Suspension
same,Observations t = 7 d @ 40° C.,"[2]; 7-J, Isopropyl acetate",Suspension
same,Observations (t = 0 @ 40° C.),"[2]; 7-K, Methanol",Suspension
same,Observations t = 7 d @ 40° C.,"[2]; 7-K, Methanol",Suspension
same,Observations (t = 0 @ 40° C.),"[2]; 7-L, Methyl acetate",Suspension
same,Observations (t = 1 d @ 40° C.),"[2]; 7-L, Methyl acetate",Suspension
same,Observations t = 7 d @ 40° C.,"[2]; 7-L, Methyl acetate",Suspension
same,Observations (t = 0 @ 40° C.),"[2]; 7-M, Methylethyl ketone",Suspension
same,Observations (t = 1 d @ 40° C.),"[2]; 7-M, Methylethyl ketone",Suspension
same,Observations t = 7 d @ 40° C.,"[2]; 7-M, Methylethyl ketone",Suspension
same,Observations (t = 0 @ 40° C.),"[2]; 7-N, 2-Methyl THF",Suspension
same,Observations (t = 1 d @ 40° C.),"[2]; 7-N, 2-Methyl THF",Suspension
same,Observations t = 7 d @ 40° C.,"[2]; 7-N, 2-Methyl THF",Suspension
same,Observations (t = 0 @ 40° C.),"[2]; 7-O, Nitromethane",Suspension
same,Observations (t = 1 d @ 40° C.),"[2]; 7-O, Nitromethane",Suspension
same,Observations t = 7 d @ 40° C.,"[2]; 7-O, Nitromethane",Suspension
same,Observations (t = 0 @ 40° C.),"[2]; 7-P, 2-Propanol",Suspension
same,Observations (t = 1 d @ 40° C.),"[2]; 7-P, 2-Propanol",Suspension
same,Observations t = 7 d @ 40° C.,"[2]; 7-P, 2-Propanol",Suspension
same,Observations (t = 0 @ 40° C.),"[2]; 7-Q, Tetrahydrofuran",Suspension
same,Observations (t = 1 d @ 40° C.),"[2]; 7-Q, Tetrahydrofuran",Sticky Solid
same,Observations t = 7 d @ 40° C.,"[2]; 7-Q, Tetrahydrofuran",Suspension
same,Observations (t = 0 @ 40° C.),"[2]; 7-R, Toluene",Suspension
same,Observations (t = 1 d @ 40° C.),"[2]; 7-R, Toluene",Suspension
same,Observations t = 7 d @ 40° C.,"[2]; 7-R, Toluene",Suspension
same,Observations (t = 0 @ 40° C.),"[2]; 7-S, Water",Suspension
same,Observations t = 7 d @ 40° C.,"[2]; 7-S, Water",Suspension
COc1ccc2c3c([nH]c2c1)CCN(C)CC3.O=C(O)/C=C/C(=O)O [Tabernanthalog•Monofumarate (CAT8931)],Observations (t = 0 @ 20° C.),"[2]; 6-A, Acetone",Suspension
same,Observations (t = 1 d @ 20° C.),"[2]; 6-A, Acetone",Suspension
same,Observations t = 7 d @ 20° C.,"[2]; 6-A, Acetone",Suspension
same,Observations (t = 0 @ 20° C.),"[2]; 6-B, Acetonitrile",Suspension
same,Observations (t = 1 d @ 20° C.),"[2]; 6-B, Acetonitrile",Suspension
same,Observations t = 7 d @ 20° C.,"[2]; 6-B, Acetonitrile",Suspension
same,Observations (t = 0 @ 20° C.),"[2]; 6-C, tert-Butylmethyl ether",Suspension
same,Observations (t = 1 d @ 20° C.),"[2]; 6-C, tert-Butylmethyl ether",Suspension
same,Observations t = 7 d @ 20° C.,"[2]; 6-C, tert-Butylmethyl ether",Suspension
same,Observations (t = 0 @ 20° C.),"[2]; 6-D, Chlorobenzene",Suspension
same,Observations (t = 1 d @ 20° C.),"[2]; 6-D, Chlorobenzene",Suspension
same,Observations t = 7 d @ 20° C.,"[2]; 6-D, Chlorobenzene",Suspension
same,Observations (t = 0 @ 20° C.),"[2]; 6-E, Dichloromethane",Suspension
same,Observations (t = 1 d @ 20° C.),"[2]; 6-E, Dichloromethane",Suspension
same,Observations t = 7 d @ 20° C.,"[2]; 6-E, Dichloromethane",Suspension
same,Observations (t = 0 @ 20° C.),"[2]; 6-F, Ethanol",Suspension
same,Observations (t = 1 d @ 20° C.),"[2]; 6-F, Ethanol",Suspension
same,Observations t = 7 d @ 20° C.,"[2]; 6-F, Ethanol",Suspension
same,Observations (t = 0 @ 20° C.),"[2]; 6-G, Ethyl acetate",Suspension
same,Observations (t = 1 d @ 20° C.),"[2]; 6-G, Ethyl acetate",Suspension
same,Observations t = 7 d @ 20° C.,"[2]; 6-G, Ethyl acetate",Suspension
same,Observations (t = 0 @ 20° C.),"[2]; 6-H, Ethyl formate",Suspension
same,Observations (t = 1 d @ 20° C.),"[2]; 6-H, Ethyl formate",Suspension
same,Observations t = 7 d @ 20° C.,"[2]; 6-H, Ethyl formate",Suspension
same,Observations (t = 0 @ 20° C.),"[2]; 6-I, Heptane",Suspension
same,Observations (t = 1 d @ 20° C.),"[2]; 6-I, Heptane",Suspension
same,Observations t = 7 d @ 20° C.,"[2]; 6-I, Heptane",Suspension
same,Observations (t = 0 @ 20° C.),"[2]; 6-J, Isopropyl acetate",Suspension
same,Observations (t = 1 d @ 20° C.),"[2]; 6-J, Isopropyl acetate",Suspension
same,Observations t = 7 d @ 20° C.,"[2]; 6-J, Isopropyl acetate",Suspension
same,Observations (t = 0 @ 20° C.),"[2]; 6-K, Methanol",Suspension
same,Observations (t = 1 d @ 20° C.),"[2]; 6-K, Methanol",Suspension
same,Observations t = 7 d @ 20° C.,"[2]; 6-K, Methanol",Suspension
same,Observations (t = 0 @ 20° C.),"[2]; 6-L, Methyl acetate",Suspension
same,Observations (t = 1 d @ 20° C.),"[2]; 6-L, Methyl acetate",Suspension
same,Observations t = 7 d @ 20° C.,"[2]; 6-L, Methyl acetate",Suspension
same,Observations (t = 0 @ 20° C.),"[2]; 6-M, Methylethyl ketone",Suspension
same,Observations (t = 1 d @ 20° C.),"[2]; 6-M, Methylethyl ketone",Suspension
same,Observations t = 7 d @ 20° C.,"[2]; 6-M, Methylethyl ketone",Suspension
same,Observations (t = 0 @ 20° C.),"[2]; 6-N, 2-Methyl THF",Suspension
same,Observations (t = 1 d @ 20° C.),"[2]; 6-N, 2-Methyl THF",Suspension
same,Observations t = 7 d @ 20° C.,"[2]; 6-N, 2-Methyl THF",Suspension
same,Observations (t = 0 @ 20° C.),"[2]; 6-O, Nitromethane",Suspension
same,Observations (t = 1 d @ 20° C.),"[2]; 6-O, Nitromethane",Suspension
same,Observations t = 7 d @ 20° C.,"[2]; 6-O, Nitromethane",Suspension
same,Observations (t = 0 @ 20° C.),"[2]; 6-P, 2-Propanol",Suspension
same,Observations (t = 1 d @ 20° C.),"[2]; 6-P, 2-Propanol",Suspension
same,Observations t = 7 d @ 20° C.,"[2]; 6-P, 2-Propanol",Suspension
same,Observations (t = 0 @ 20° C.),"[2]; 6-Q, Tetrahydrofuran",Suspension
same,Observations (t = 1 d @ 20° C.),"[2]; 6-Q, Tetrahydrofuran",Suspension
same,Observations t = 7 d @ 20° C.,"[2]; 6-Q, Tetrahydrofuran",Suspension
same,Observations (t = 0 @ 20° C.),"[2]; 6-R, Toluene",Suspension
same,Observations (t = 1 d @ 20° C.),"[2]; 6-R, Toluene",Suspension
same,Observations t = 7 d @ 20° C.,"[2]; 6-R, Toluene",Suspension
same,Observations (t = 0 @ 20° C.),"[2]; 6-S, Water",Suspension
same,Observations (t = 1 d @ 20° C.),"[2]; 6-S, Water",Suspension
same,Observations t = 7 d @ 20° C.,"[2]; 6-S, Water",Suspension
